Experimental data taken from US4478827A, “Renin inhibitors” (The General Hospital Corporation, priority 1983, dated 1984).
≈ marks a conversion by molar mass, not a printed value. Read-outs that look alike come from different tables or passages of the source. Where a SMILES comes first, the peptide text is derived from it. [ ]: non-standard residue; d: D form.

What was measured:
renin [1] = target: T1, renin (Homo sapiens, UniProt P00797); conditions: octapeptides with replaced Leu-Leu cleavage site, prior art; read-out: binding constants; cited from earlier work
T1 sequence (P00797 67-406): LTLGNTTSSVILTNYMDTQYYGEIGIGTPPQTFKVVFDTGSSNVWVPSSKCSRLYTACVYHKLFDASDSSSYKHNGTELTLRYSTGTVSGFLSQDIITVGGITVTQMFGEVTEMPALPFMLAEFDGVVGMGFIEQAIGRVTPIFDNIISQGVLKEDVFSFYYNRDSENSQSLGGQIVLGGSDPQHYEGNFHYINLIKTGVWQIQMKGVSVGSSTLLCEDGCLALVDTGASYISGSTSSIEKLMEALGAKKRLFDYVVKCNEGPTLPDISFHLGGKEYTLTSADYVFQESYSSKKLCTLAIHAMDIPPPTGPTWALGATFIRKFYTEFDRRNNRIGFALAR

[2] = Solubility in aqueous medium; assay type: physicochemical
log P = assay type: physicochemical
[3] = Half life in vivo (loss of radioactively labeled peptide from the circulation)
Protocol: The polypeptides of this invention are characterized by solubility in an aqueous medium at physiologic pH of 100-500 μm, an inhibition constant for (Ki) of between 1-50 μm and a half-life in vivo, as measured by rate of loss of radioactively labeled peptide from the circulation, of between about 1-10 minutes, especially 5-10 minutes.

renin [4] = target: T1, renin; experiment: biochemical
Protocol: The peptide being tested is dissolved in 0.01 N HCl and the pH adjusted to pH 7.5 to obtain high concentrations of peptide. The peptide solution is diluted further to appropriate concentrations with 0.1 M Tris HCl-albumin.
First, to determine Km, renin (0.006 Goldblatt unit/ml) is incubated for 2 hrs. at 37° with incremental concentrations of tetradecapeptide substrate varying between 3 and 108μ M in a volume of 160 μl at pH 7.5 in 0.1M Tris HCl containing 0.5% albumin. The release of angiotensin I is determined by radioimmunoassay (Haber et al, J. Clin. Endocrinol. Metab. 29, 1349 (1969)). […] Controls for cross-relatively are performed with each experiment and appropriate corrections are made when significant, (Poulsen et al, Scand. J. Clin. Lab. Invest. 31, Suppl. No. 132, 1, (1973)).
The inhibitor constant is calculated at previously described, (Poulsen et al, Scand. J. Clin. Lab. Invest. 31, suppl. No. 132, 1, (1973)), from a weighted leastsquares fit of a Lineweaver-Burk plot. […]
Angiotensin I standards and tetradecapeptide renin substrate were obtained from Peninsula (San Mateo, CA). Angiotensin I concentrations were determined with the radio immunoassay kit purchased from New England Nuclear (Boston, MA). […]
Data from the RIA was worked up using a computer program. Data were first fitted to a Lineweaver-Burke plot and from this KI was calculated.

[5] = pH 7.4, water, pH 7.40, read-out: Solubility (pH 7.40)

| Compound | Ki (renin [1]) | solubility [2] | solubility [2, 5] | logP (log P) | Half life in vivo [3] | Ki (renin [4]) | life in vitro and in vivo ([3]; in vitro and in vivo) |
| --- | --- | --- | --- | --- | --- | --- | --- |
| Leu-Tyr | 12 µM | – | – | – | – | – | – |
| CC(C)[C@H](NC(=O)[C@H](Cc1ccccc1)NC(=O)[C@H](Cc1ccccc1)NC(=O)[C@H](Cc1c[nH]cn1)NC(=O)[C@H](Cc1ccccc1)NC(=O)[C@@H]1CCCN1C(=O)[C@H](Cc1c[nH]cn1)NC(=O)[C@@H]1CCCN1)C(=O)N[C@@H](Cc1ccc(O)cc1)C(=O)N[C@H](CCCCN)C(=O)O [D-RIP, Pro-His-Pro-Phe-His-Phe-Phe-Val-Tyr-D-Lys] (H-PHPFHFFVY[dK]-OH) | – | 330 µM (≈ 435 µg/mL) | 330 µM (≈ 435 µg/mL) | -1.28 | 5 min | 29.5 µM | – |
| CC(C)[C@H](NC(=O)[C@H](Cc1ccccc1)NC(=O)[C@H](Cc1ccccc1)NC(=O)[C@H](Cc1cnc[nH]1)NC(=O)[C@H](Cc1ccccc1)NC(=O)[C@@H]1CCCN1C(=O)[C@H](Cc1cnc[nH]1)NC(=O)[C@@H]1CCCN1)C(=O)N[C@@H](Cc1ccc(O)cc1)C(=O)N[C@@H](CCCCN)C(=O)O [RIP, Pro-His-Pro-Pre-His-Phe-Phe-Val-Tyr-Lys] (H-PHPFHFFVYK-OH) | – | – | 840 µM (≈ 1110 µg/mL) | – | 3.8 min | 42 µM | relatively short life |
| Leu-Phe | 4 µM | – | – | – | – | – | – |
